row,logP,Compound
1,0.85,COc1ccccc1OCC1CN=C(N)O1 (configuration not stated)
2,1.24,CCOc1ccccc1OCC1CN=C(N)O1 (configuration not stated)
3,1.79,Cc1ccc(OCC2CN=C(N)O2)cc1 (configuration not stated)
4,0.6,NC1=NCC(COc2ccc(N3CCOCC3)cc2)O1 (configuration not stated)
5,1.4,CN(C)c1cccc(OCC2CN=C(N)O2)c1 (configuration not stated)
6,1.26,COc1ccc(OCC2CN=C(N)O2)cc1 (configuration not stated)
7,2,NC1=NCC(COc2ccc(Cl)cc2)O1 (configuration not stated)

row,Compound,logP
1,NC1=NCC(COc2ccccc2Cl)O1 (configuration not stated),1.77
2,NC1=NCC(COc2cccc([N+](=O)[O-])c2)O1 (configuration not stated),1.23
3,Cc1ccccc1OCC1CN=C(N)O1 (configuration not stated),1.69
4,NC1=NCC(COc2ccccc2)O1 (configuration not stated),1.27
5,NC1=NCC(COc2ccc([N+](=O)[O-])cc2)O1 (configuration not stated),1.17

# — the OPERA property sets (Mansouri et al. 2018)
